{"source": "PubChem BioAssay AID256", "about": "(DTP/NCI, 2004)", "system": "CD2F1 mice, L1210 leukemia ip, survival T/C", "experiment": "NCI In Vivo Anticancer Drug Screen. Data for tumor model L1210 Leukemia (intraperitoneal) in CD2F1 (CDF1) mice", "settings": "endpoint: mean survival time, higher = longer survival", "procedure,_shortened": "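Ratio T/C, where T is the treated-group value and C the vehicle-dosed control value, from mice implanted with a transplantable tumor.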", "key": {"[1]": {"settings": "dose: 400.0 mg/kg/injection, schedule: Q04DX003 (ip), vehicle: saline"}, "[2]": {"settings": "dose: 100.0 mg/kg/injection, schedule: Q04DX003 (ip), vehicle: saline with Tween-80"}, "[3]": {"settings": "dose: 200.0 mg/kg/injection, schedule: Q04DX003 (ip), vehicle: saline with Tween-80"}, "[4]": {"settings": "dose: 400.0 mg/kg/injection, schedule: Q04DX003 (ip), vehicle: saline with Tween-80"}, "[5]": {"settings": "dose: 50.0 mg/kg/injection, schedule: Q01DX009 (ip), vehicle: saline with Tween-80"}, "[6]": {"settings": "dose: 100.0 mg/kg/injection, schedule: Q01DX009 (ip), vehicle: saline with Tween-80"}, "[7]": {"settings": "dose: 12.5 mg/kg/injection, schedule: Q04DX002 (ip), vehicle: saline with Tween-80"}, "[8]": {"settings": "dose: 25.0 mg/kg/injection, schedule: Q04DX002 (ip), vehicle: saline with Tween-80"}}, "note": "Several values for one entry are separate records, joined by “and”; a condition that tells them apart may be missing. Equal entries are not always repeated. Toxic doses and inconclusive results are not listed."}
{"smiles": "CCN(CC)CC(=O)Nc1c(Cl)cccc1Cl", "values": [{"measurement": "T/C", "setting": "dose: 100.0 mg/kg/injection, schedule: Q01DX009 (ip), vehicle: saline", "value": "98 % of control"}, {"measurement": "T/C", "setting": "dose: 100.0 mg/kg/injection, schedule: Q04DX003 (ip), vehicle: saline", "value": "104 % of control"}, {"measurement": "T/C", "setting": "dose: 200.0 mg/kg/injection, schedule: Q01DX009 (ip), vehicle: saline", "value": "92 % of control"}, {"measurement": "T/C", "setting": "dose: 200.0 mg/kg/injection, schedule: Q04DX003 (ip), vehicle: saline", "value": "108 % of control"}, {"measurement": "T/C", "setting": "[1]", "value": "102 % of control"}]}
{"smiles": "Cc1ccc(Cl)cc1NS(=O)(=O)c1cccc([N+](=O)[O-])c1", "values": [{"measurement": "T/C", "setting": "[2]", "value": "98 % of control"}, {"measurement": "T/C", "setting": "[3]", "value": "106 % of control"}, {"measurement": "T/C", "setting": "[4]", "value": "88 % of control"}]}
{"smiles": "NCCCCS(=O)(=O)Nc1ccc(Nc2c3ccccc3nc3cc([N+](=O)[O-])ccc23)cc1", "values": [{"measurement": "T/C", "setting": "[5]", "value": "158 % of control"}, {"measurement": "T/C", "setting": "[6]", "value": "172 % of control"}, {"measurement": "T/C", "setting": "[2]", "value": "157 % of control"}, {"measurement": "T/C", "setting": "dose: 300.0 mg/kg/injection, schedule: Q04DX003 (ip), vehicle: saline with Tween-80", "value": "159 % of control"}, {"measurement": "T/C", "setting": "[1]", "value": "151 % of control"}]}
{"smiles": "N#Cc1cn(C2OC(CO)C(O)C2O)c2ncn3ncnc3c12", "note": "(stereo not given)", "values": [{"measurement": "T/C", "setting": "dose: 3.13 mg/kg/injection, schedule: Q01DX005 (ip), vehicle: water", "value": "102 % of control"}, {"measurement": "T/C", "setting": "dose: 6.25 mg/kg/injection, schedule: Q01DX005 (ip), vehicle: water", "value": "102 % of control"}, {"measurement": "T/C", "setting": "dose: 12.5 mg/kg/injection, schedule: Q01DX005 (ip), vehicle: distilled water + Tween-80", "value": "122 % of control"}, {"measurement": "T/C", "setting": "dose: 12.5 mg/kg/injection, schedule: Q01DX005 (ip), vehicle: water", "value": "112 % of control"}, {"measurement": "T/C", "setting": "dose: 25.0 mg/kg/injection, schedule: Q01DX005 (ip), vehicle: distilled water + Tween-80", "value": "112 % of control"}, {"measurement": "T/C", "setting": "dose: 25.0 mg/kg/injection, schedule: Q01DX005 (ip), vehicle: water", "value": "120 % of control"}, {"measurement": "T/C", "setting": "dose: 50.0 mg/kg/injection, schedule: Q01DX005 (ip), vehicle: distilled water + Tween-80", "value": "116 % of control"}, {"measurement": "T/C", "setting": "dose: 100.0 mg/kg/injection, schedule: Q01DX005 (ip), vehicle: distilled water + Tween-80", "value": "106 % of control"}]}
{"smiles": "CC(CC(O)(C(F)(F)F)C(F)(F)F)OC(=O)Nc1ccc(Cl)c(Cl)c1", "note": "(stereo not given)", "values": [{"measurement": "T/C", "setting": "dose: 100.0 mg/kg/injection, schedule: Q04DX003 (ip), vehicle: Klucel (hydroxypropylcellulose) (HPC)", "value": "96 % of control"}, {"measurement": "T/C", "setting": "dose: 200.0 mg/kg/injection, schedule: Q04DX003 (ip), vehicle: Klucel (hydroxypropylcellulose) (HPC)", "value": "101 % of control"}, {"measurement": "T/C", "setting": "dose: 400.0 mg/kg/injection, schedule: Q04DX003 (ip), vehicle: Klucel (hydroxypropylcellulose) (HPC)", "value": "101 % of control"}]}
{"smiles": "O=C(CCO)CC(=O)CCc1ccccc1Cl", "values": [{"measurement": "T/C", "setting": "[2]", "value": "97 % of control"}, {"measurement": "T/C", "setting": "[3]", "value": "103 % of control"}, {"measurement": "T/C", "setting": "[4]", "value": "91 % of control"}]}
{"smiles": "CCCCNC(C)(C)C(S)c1ccc(Cl)cc1", "note": "(stereo not given)", "values": [{"measurement": "T/C", "setting": "dose: 12.0 mg/kg/injection, schedule: Q04DX003 (ip), vehicle: other", "value": "96 % of control"}, {"measurement": "T/C", "setting": "dose: 25.0 mg/kg/injection, schedule: Q04DX003 (ip), vehicle: other", "value": "105 % of control"}, {"measurement": "T/C", "setting": "dose: 50.0 mg/kg/injection, schedule: Q04DX003 (ip), vehicle: other", "value": "94 % of control"}]}
{"smiles": "Cc1[nH]ccc2c(C)c3nc4ccccc4c3cc12", "values": [{"measurement": "T/C", "setting": "[5]", "value": "152 % of control"}, {"measurement": "T/C", "setting": "[6]", "value": "117 % of control"}, {"measurement": "T/C", "setting": "[3]", "value": "96 % of control"}]}
{"smiles": "Cn1cnc([N+](=O)[O-])c1S(=O)(=O)NCN1CCOCC1", "values": [{"measurement": "T/C", "setting": "dose: 6.25 mg/kg/injection, schedule: Q01DX009 (ip), vehicle: Klucel (hydroxypropylcellulose) (HPC)", "value": "95 % of control"}, {"measurement": "T/C", "setting": "dose: 12.5 mg/kg/injection, schedule: Q01DX009 (ip), vehicle: Klucel (hydroxypropylcellulose) (HPC)", "value": "118 % of control and 101 % of control"}, {"measurement": "T/C", "setting": "dose: 25.0 mg/kg/injection, schedule: Q01DX009 (ip), vehicle: Klucel (hydroxypropylcellulose) (HPC)", "value": "101 % of control and 106 % of control"}, {"measurement": "T/C", "setting": "dose: 50.0 mg/kg/injection, schedule: Q01DX009 (ip), vehicle: Klucel (hydroxypropylcellulose) (HPC)", "value": "95 % of control and 110 % of control"}, {"measurement": "T/C", "setting": "dose: 100.0 mg/kg/injection, schedule: Q01DX009 (ip), vehicle: Klucel (hydroxypropylcellulose) (HPC)", "value": "96 % of control"}]}
{"smiles": "CC12C3C4C5C3C1(C)C(C42)C51OCCO1", "note": "(stereo not given)", "values": [{"measurement": "T/C", "setting": "[7]", "value": "100 % of control"}, {"measurement": "T/C", "setting": "[8]", "value": "100 % of control"}]}
{"smiles": "NC(=S)N/N=C/c1ccc(Br)cn1", "values": [{"measurement": "T/C", "setting": "[7]", "value": "110 % of control"}, {"measurement": "T/C", "setting": "[8]", "value": "110 % of control"}]}
{"smiles": "CC1CCC2N(C1)CC1C(C(O)C(O)C3(O)C1CC14OC5(O)C(O)CCC1(C)C5CC(O)C34)C2(C)O", "note": "(stereo not given)", "values": [{"measurement": "T/C", "setting": "[5]", "value": "105 % of control"}, {"measurement": "T/C", "setting": "[6]", "value": "116 % of control"}, {"measurement": "T/C", "setting": "dose: 200.0 mg/kg/injection, schedule: Q01DX009 (ip), vehicle: saline with Tween-80", "value": "105 % of control"}]}
